Reference: BigSolDB 2.1

O=P(NC1CCCCC1)(Oc1ccccc1)Oc1ccccc1
solubility (mole fraction)
Settings | in THF | in acetone | in acetonitrile | in benzene | in chloroform | in dichloromethane | in ethanol | in ethyl acetate | in methanol | in toluene
278.15 K | – | – | – | – | – | 0.0884 | – | – | – | –
283.15 K | – | – | – | – | – | 0.102 | – | – | – | –
288.15 K | – | – | – | – | – | 0.129 | – | – | – | –
293.15 K | 0.168 | 0.0439 | 0.0115 | 0.077 | 0.207 | 0.155 | 0.0358 | 0.0305 | 0.0411 | 0.0539
298.15 K | 0.192 | 0.0611 | 0.0171 | 0.0991 | 0.233 | 0.18 | 0.049 | 0.0395 | 0.0533 | 0.0688
303.15 K | 0.229 | 0.0796 | 0.0248 | 0.127 | 0.266 | 0.216 | 0.0638 | 0.0549 | 0.0702 | 0.0911
308.15 K | 0.269 | 0.109 | 0.0371 | 0.159 | 0.313 | 0.26 | 0.0867 | 0.0721 | 0.0955 | –
313.15 K | 0.318 | 0.134 | 0.0521 | 0.195 | 0.352 | – | 0.116 | 0.0946 | 0.121 | 0.154
318.15 K | 0.372 | 0.187 | 0.0759 | 0.25 | 0.4 | – | 0.153 | 0.128 | 0.161 | –
323.15 K | 0.419 | 0.229 | 0.106 | 0.292 | 0.459 | – | 0.196 | 0.166 | 0.212 | 0.259
328.15 K | 0.504 | 0.271 | 0.148 | 0.374 | 0.518 | – | 0.253 | 0.211 | 0.281 | –
333.15 K | 0.567 | – | 0.191 | 0.457 | – | – | 0.317 | 0.264 | 0.356 | 0.409
338.15 K | – | – | 0.263 | 0.55 | – | – | 0.406 | 0.341 | – | –
343.15 K | – | – | 0.358 | 0.636 | – | – | – | 0.426 | – | 0.611
